In article PMC6428247, “Potent inhibitors of equine steroid isomerase EcaGST A3-3” (PLoS ONE, 2019):
Where “and” joins values, the source holds several entries; their conditions need not be identical. Identical values can stand only once. Like-named read-outs stand apart in the source and are kept apart here.

T1: HsaGST A3-3 (Homo sapiens, UniProt Q16772)
T1 construct: made in house
T1 sequence (Q16772 1-222): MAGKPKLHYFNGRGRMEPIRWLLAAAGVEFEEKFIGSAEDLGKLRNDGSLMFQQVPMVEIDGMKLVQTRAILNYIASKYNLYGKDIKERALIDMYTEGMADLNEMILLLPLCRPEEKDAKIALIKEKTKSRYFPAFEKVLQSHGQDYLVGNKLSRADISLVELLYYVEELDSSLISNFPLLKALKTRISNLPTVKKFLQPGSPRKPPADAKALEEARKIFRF

T2: HsaGST M2-2 (Homo sapiens, UniProt P28161)
T2 construct: made in house
T2 sequence (P28161 1-218): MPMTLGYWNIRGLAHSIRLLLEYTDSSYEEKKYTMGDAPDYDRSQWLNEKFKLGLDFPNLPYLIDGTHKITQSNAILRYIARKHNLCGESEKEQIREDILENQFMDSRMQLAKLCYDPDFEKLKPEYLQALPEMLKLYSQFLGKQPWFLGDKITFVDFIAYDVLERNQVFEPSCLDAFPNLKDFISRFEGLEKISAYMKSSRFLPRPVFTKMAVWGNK

B1: EcaGST A3-3 (Equus caballus) (protein)
chain: MAVKPMLHYFNGRGRMEPIRWLLAAAGVEFEETFIDTPEDFEKLKNDGSLMFQQVPMVEIDGMKLVQSRAILNYVAAKHNLYGKDIKERALIDMYIEGVADLNEMILLLPITPPAEKDAKIMLIKDRTTNRYLPAFEKVLKSHGEDYLVGNRLSRADIHLVELLYLVEELDPSLLTNFPLLKALKARISNLPTVKKFLQPGGARKPPGDEKSVEKSRKIFKF

Legend:
HsaGST A3-3 [1] = biological target: T1, HsaGST A3-3; design: method as in PMID 23769903; details: CDNB activity, 1 mM GSH, 1 mM CDNB, pH 6.5, 30°C; read-out: IC50 HsaGST A3-3 (published); cited from earlier work
HsaGST A3-3 [2] = biological target: T1, HsaGST A3-3; experiment: Inhibition of HsaGST A3-3 CDNB activity; assay type: biochemical; details: for Inhibition (%) of HsaGST A3-3: 10 μM inhibitor; for IC50: CDNB activity
Experimental: (§1) EcaGST A3-3 [10], HsaGST A3-3 [12] and HsaGST M2-2 [13] were cloned, expressed and purified as described previously. Protein concentration was determined by means of the Bradford assay.
(§2) The conjugation of GSH with the electrophilic substrate CDNB was used as a biochemical assay for general activity measurements. Screening of the US Drug library for inhibition was done in triplicates in 96-well plates in a Thermo Scientific Multiskan GO spectrophotometer. The conjugation activity at 30°C was monitored at 340 nm for 1 min in 0.1 M sodium phosphate buffer at pH 6.5 and 10 μM inhibitor concentration in a final volume of 300 μL. Initial concentrations of GSH and CDNB were 1 mM.
(§3) For understanding the effects of pharmacological interventions based on GST inhibitors, it is important to know the selectivity among the numerous GSTs. […] All values were determined with CDNB, which is a common substrate for all the enzymes.

EcaGST A3-3 [3] = biological target: T3, EcaGST A3-3 (Equus caballus, UniProt M9ZT87); experiment: Inhibition of EcaGST A3-3 steroid double-bond isomerase activity with Δ^5-AD; assay type: biochemical, Equus ferus caballus; details: for Hill coefficient, Δ^5-AD inhibition: dose-response curve, substrate Δ^5-AD, mean ± SD
HsaGST P1-1 = test system: HsaGST P1-1; design: method as in PMID 23769903; details: 1 mM GSH, 1 mM CDNB, pH 6.5, 30°C, cited from earlier work; for Inhibition (%) of HsaGST P1-1: 3.3 μM inhibitor; for IC50: CDNB activity
EcaGST A3-3 [4] = biological target: T3, EcaGST A3-3; experiment: Inhibition of EcaGST A3-3 activity, GSH conjugation with CDNB; assay type: biochemical, Equus ferus caballus; details: for Hill coefficient, CDNB inhibition: dose-response curve, substrate CDNB, mean ± SD
Experimental: The final solvent concentration in the reaction system was kept at 5% (v/v) as a maximum.
as §2
Assay conditions for inhibition measurements of enzyme activity with CDNB were the following: EcaGST A3-3 15 nM, initial concentrations of GSH and CDNB 1 mM, inhibitor concentrations varying from 0.029 μM to 15 μM, in 100 mM Na2HPO4/NaH2PO4 at pH 6.5.
The reactions were followed spectrophotometrically for 1 min at 30°C using a Shimadzu UV-2501 PC spectrophotometer (Shimadzu Inc.). All experiments included triplicate measurements in each data point.
The equation for competitive inhibition fitted by non-linear regression was v=Vmax[S]/KM(1+[I]/Ki)+[S] where [S] is the substrate concentrations and [I] is the inhibitor concentration.

HsaGST M2-2 = biological target: T2, HsaGST M2-2; experiment: Inhibition of HsaGST M2-2 CDNB activity; assay type: biochemical
Experimental: as §1, §2, §3

HsaGST S1-1 = test system: HsaGST S1-1; design: method as in PMID 25603235; details: 1 mM GSH, 1 mM CDNB, pH 6.5, 30°C, cited from earlier work; for Inhibition (%) of HsaGST S1-1: 10 μM inhibitor; for IC50: CDNB activity
[5] = substrate: CC12CCC3C(CC=C4CC(=O)CCC43C)C1CCC2=O; experiment: purified protein, by the assay type; details: other: 1 mM GSH, fitted with and without anthralin; 30.0 °C
[6] = pH 6.5, 10 μM inhibitor, 1 mM GSH, 1 mM CDNB, pH 6.5, 30°C, read-out: Inhibition (%) of HsaGST A3-3
[7] = 10 μM inhibitor, 1 mM GSH, 1 mM CDNB, sodium phosphate pH 6.5, 30°C
[8] = 1 mM CDNB, 1 mM GSH, 100 mM sodium phosphate pH 6.5, 30°C, read-out: IC50 EcaGST A3-3, substrate CDNB
[9] = 10 μM inhibitor, 1 mM GSH, 1 mM CDNB, pH 6.5, 30°C, read-out: Inhibition (%) of HsaGST M2-2
[10] = 1 mM GSH, 1 mM CDNB, pH 6.5, 30°C
[11] = 0.1 mM Δ^5-AD, 1 mM GSH, 25 mM sodium phosphate pH 8.0, 30°C
[12] = pH 6.5, read-out: Inhibition (%) of EcaGST A3-3, 10 μM inhibitor, 1 mM GSH, 1 mM CDNB, sodium phosphate pH 6.5, 30°C
[13] = 10 μM inhibitor, 1 mM GSH, 1 mM CDNB, pH 6.5, 30°C
[14] = read-out: IC50 EcaGST A3-3, substrate Δ^5-AD, 0.1 mM Δ^5-AD, 1 mM GSH, 25 mM sodium phosphate pH 8.0, 30°C
[15] = CDNB activity, 1 mM GSH, 1 mM CDNB, pH 6.5, 30°C, read-out: IC50 HsaGST M2-2

| Molecule | IC50 (HsaGST A3-3 [1]) | inhibition at 10 µM (HsaGST A3-3 [2]; [6]) | IC50 (EcaGST A3-3 [3]) | Inhibition (%) of HsaGST P1-1 (HsaGST P1-1) | Inhibition (%) of EcaGST A3-3 (EcaGST A3-3 [4]; [7]) | IC50 (EcaGST A3-3 [4]; [8]) | Inhibition (%) of HsaGST S1-1 (HsaGST S1-1) | IC50 (HsaGST S1-1) | Inhibition (%) of HsaGST A3-3 (HsaGST A3-3 [2]; [10]) | IC50 EcaGST A3-3, substrate Δ^5-AD (EcaGST A3-3 [3]; [11]) | Hill coefficient, Δ^5-AD inhibition (EcaGST A3-3 [3]) | IC50 (HsaGST P1-1) | Hill coefficient, CDNB inhibition (EcaGST A3-3 [4]) | Inhibition (%) of HsaGST M2-2 (HsaGST M2-2; [13]) | further results |
| --- | --- | --- | --- | --- | --- | --- | --- | --- | --- | --- | --- | --- | --- | --- | --- |
| Oc1c(Cl)cc(Cl)cc1Sc1cc(Cl)cc(Cl)c1O [Bithionate sodium] | 700 nM | 47% | 1600 ± 310 nM | 10% | 64 ± 22% | 1900 ± 520 nM | 47% | 12000 nM |  |  |  |  |  |  | inhibition at 10 µM (HsaGST M2-2; [9]): 73% |
| C=C(CC)C(=O)c1ccc(OCC(=O)O)c(Cl)c1Cl [Ethacrynic acid] | 400 nM | 94 to 100% | 250 ± 100 nM | 25% | 100% |  | 32% | 44000 nM | 94% | submicromolar range | 1.0 | 4900 nM | 2.5±0.21 | low or negligible effects | Inhibition (%) of HsaGST P1-1 (HsaGST P1-1; listed as ethacrynic acid): low or negligible effects; IC50 (EcaGST A3-3 [4]): 180 ± 67 nM; Inhibition modality, substrate CDNB (EcaGST A3-3 [4]; CDNB varied, 1 mM GSH): Competitive; Ki (EcaGST A3-3 [4]; Ki, EcaGST A3-3, substrate CDNB, CDNB varied, 1 mM GSH, 0.25 μM inhibitor): 140 nM and 141 nM; inhibition at 10 µM (EcaGST A3-3 [4]; [12]): 94 to 100%; inhibition at 10 µM (HsaGST M2-2; [9]): 0%; Inhibition (%) of HsaGST S1-1 (HsaGST S1-1; listed as ethacrynic acid): low or negligible effects |
| Oc1c(Cl)cc(Cl)c(Cl)c1Cc1c(O)c(Cl)cc(Cl)c1Cl [Hexachlorophene] | 160 nM |  | 440 ± 220 nM | 34% |  |  | 61% | 8900 nM |  |  |  | 9700 nM |  |  | inhibition at 10 µM (HsaGST A3-3 [2]; pH 6.5, read-out: Inhibition (%) of HsaGST A3-3): 89%; IC50 (EcaGST A3-3 [4]): 320 ± 36 nM; inhibition at 10 µM (EcaGST A3-3 [4]; [12]): 96 ± 1.1%; IC50 (HsaGST M2-2): 1500 nM; inhibition at 10 µM (HsaGST M2-2; pH 6.5, read-out: Inhibition (%) of HsaGST M2-2): 98% |
| O=C([O-])c1ccccc1-c1c2cc(Br)c(=O)cc-2oc2[c]([Hg+])c([O-])c(Br)cc12.[Na+].[Na+].[OH-] [Merbromin] | 660 nM |  |  | 44% | 95 ± 18% | 2600 ± 630 nM | 85% | 3300 nM | 98% |  |  | 3100 nM |  | 85% | IC50 (EcaGST A3-3 [3]; [14]): 2500 ± 480 nM; IC50 (HsaGST M2-2; [15]): 4900 nM |
| O=C(O)c1cc(O)c2c(c1)[C@H]([C@H]1c3cc(C(=O)O)cc(O)c3C(=O)c3c(O[C@@H]4O[C@H](CO)[C@@H](O)[C@H](O)[C@H]4O)cccc31)c1cccc(O[C@@H]3O[C@H](CO)[C@@H](O)[C@H](O)[C@H]3O)c1C2=O [Sennoside A] |  | 90% | 110 ± 8.2 nM | < 4% |  | 2800 ± 280 nM | 30% | 39000 nM |  | submicromolar range | 2.1±0.29 |  | 2.2±0.41 |  | IC50 (HsaGST A3-3 [2]; [10]): 980 nM; Times more potent with Δ^5-AD as substrate than with CDNB (EcaGST A3-3 [3]; ratio of IC50 values CDNB vs Δ^5-AD, EcaGST A3-3): approximately 25 times; inhibition at 10 µM (EcaGST A3-3 [4]; 10 μM inhibitor, 1 mM GSH, 1 mM CDNB, sodium phosphate pH 6.5, 30°C, read-out: Inhibition (%) of EcaGST A3-3): 100%; inhibition at 10 µM (HsaGST M2-2; 10 μM inhibitor, 1 mM GSH, 1 mM CDNB, pH 6.5, 30°C, read-out: Inhibition (%) of HsaGST M2-2 (symbol)): < 30% |
| O=C(OCC1OC(OC(=O)c2cc(O)c(O)c(OC(=O)c3cc(O)c(O)c(O)c3)c2)C(OC(=O)c2cc(O)c(O)c(OC(=O)c3cc(O)c(O)c(O)c3)c2)C(OC(=O)c2cc(O)c(O)c(OC(=O)c3cc(O)c(O)c(O)c3)c2)C1OC(=O)c1cc(O)c(O)c(OC(=O)c2cc(O)c(O)c(O)c2)c1)c1cc(O)c(O)c(OC(=O)c2cc(O)c(O)c(O)c2)c1 (stereo not shown) [Tannic acid] |  |  |  | < 4% |  | 330 ± 18 nM | 100% | 350 nM |  | submicromolar range | 2.1±0.63 |  | 2.2±0.23 |  | IC50 (HsaGST A3-3 [2]; [10]): 210 nM; IC50 (EcaGST A3-3 [3]; [14]): 220 ± 34 nM; IC50 (HsaGST M2-2; [15]): 1200 nM |
| Chlorophyllide Cu-complex Na salt | 330 nM |  |  | 51% | 98 ±2.2% | 2100 ± 270 nM | 100% | 1700 nM | 84% | Anomalous curve |  | 2300 nM |  | 100% |  |
| B1 |  |  |  |  |  |  |  |  |  |  |  |  |  |  | Km [5]: 10.8 ± 0.46 µM |
